Experimental findings from patent US20240270762A1, “PENICILLIN-BINDING PROTEIN INHIBITORS” (priority 2021, published 2024) are described below.

Assay [1] addresses T1, PBP3 from Acinetobacter baumannii (ATCC 19606) (Acinetobacter baumannii, UniProt A0ABX6CK25).
T1 sequence (A0ABX6CK25 64-610): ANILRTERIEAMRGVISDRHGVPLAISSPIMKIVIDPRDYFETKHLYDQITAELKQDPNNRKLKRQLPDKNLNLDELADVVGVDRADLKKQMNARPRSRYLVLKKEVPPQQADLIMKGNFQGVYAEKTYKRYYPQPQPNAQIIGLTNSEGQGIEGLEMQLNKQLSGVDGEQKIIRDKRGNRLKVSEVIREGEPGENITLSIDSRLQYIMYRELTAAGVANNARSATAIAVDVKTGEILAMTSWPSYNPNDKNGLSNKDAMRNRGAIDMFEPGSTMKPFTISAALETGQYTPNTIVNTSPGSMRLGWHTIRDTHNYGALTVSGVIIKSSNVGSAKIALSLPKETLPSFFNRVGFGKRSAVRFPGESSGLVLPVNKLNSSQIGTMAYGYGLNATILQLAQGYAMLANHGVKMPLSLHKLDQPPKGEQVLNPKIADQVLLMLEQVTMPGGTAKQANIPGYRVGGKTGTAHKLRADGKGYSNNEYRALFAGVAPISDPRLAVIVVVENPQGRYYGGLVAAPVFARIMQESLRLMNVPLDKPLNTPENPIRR
Put plainly: Bocillin-FL fluorescence polarization competition binding, A. baumannii PBP3. To be noted: fluorescence polarization competition binding assay using Bocillin-FL; read-out: A. baumannii PBP3 Potency. An excerpt:
(§1) To determine the ability of boronic acid-based test PBP inhibitors to bind Penicillin Binding Proteins (PBPs), Bocillin-FL (fluorescently-labeled penicillin V; ThermoFisher Scientific) was used in a fluorescence polarization (FP) competition binding assay to assess inhibitor binding to PBP3 from Escherichia coli (K-12), PBP3 from Pseudomonas aeruginosa (PAO1), PBP1a and PBP3 from Acinetobacter baumannii (ATCC 19606), and PBP2 from Neisseria gonorrhoeae (FA19). PBPs were cloned and purified as described previously (E. coli PBP3, King, D. T, et al., ACS Infectious Diseases 2015, 1, 175-184; P. aeruginosa PBP3, Han et. al., PNAS 2010, 107 (51), 22002-22007; A. baumannii PBPs, Penwell et. al., Antimicrob. Agents Chemother. 2015, 59 (3), 1680-1689; N. gonorrhoeae PBP2, Singh et. al., J. Biol. Chem. 2019, 294 (38), 14020-14032). To establish assay conditions for competition binding, enzyme titration/saturation binding experiments were initially performed. Bocillin-FL was prepared at 0.2 μM in a buffer comprised of 50 mM Hepes (pH 8.0), 300 mM NaCl and 10% (v/v) glycerol for reactions with E. coli, P. aeruginosa and N. gonorrhoeae PBPs, and 25 mM Tris (pH 8.0), 200 mM NaCl, 10% (v/v) glycerol and 0.005% (v/v) Tween 20 for reactions with A. baumannii PBPs. Saturation binding was performed by mixing 40 μl of PBP solutions ranging in concentrations from 0-24 μM with 40 μl of the 0.2 μM Bocillin-FL solution, in individual wells of a black 384-well microplate. FP was measured immediately upon mixing (Excitation, 490 nm; Emission, 520 nm; g-factor, 0.96), using a Cytation3 (BioTek) microplate reader and measured continuously for up to 120 minutes. The FP response stabilized after 15 minutes for P. aeruginosa and A. baumannii PBP3, 30 minutes for E. coli PBP3 and A. baumannii PBP1a, and less than 1 minute for N. gonorrhoeae PBP2. […] The competition binding assay (80 μl final volume) was validated using beta-lactams and PBPs at final concentrations of: 1.5 μM for E. coli PBP3; 0.75 μM for P. aeruginosa PBP3; 1 μM for A. baumannii PBP1a; 0.2 μM for A. baumannii PBP3; and 0.25 μM for N. gonorrhoeae PBP2. Bocillin-FL was at 0.1 μM (0.05 μM with A. baumannii PBP1a) and beta-lactam concentrations ranged from 0-1,000 μM. E. coli PBP3 was incubated with increasing concentrations of ampicillin in a black 384-well microplate (Corning) for 30 minutes. P. aeruginosa PBP3 was incubated for 15 minutes with aztreonam, whereas A. baumannii PBP1a and PBP3 were incubated for 15 minutes with meropenem, and then Bocillin-FL was added followed immediately by the FP measurement for up to 60 minutes. […] The beta-lactam potency was reported as the concentration of beta-lactam required to reduce the amount of PBP bound-Bocillin-FL by 50% (EC50). […] The EC50 of aztreonam was determined to be <0.5 μM for P. aeruginosa PBP3. […] Binding assays for boronic acid PBP inhibitors were performed in an identical fashion for the respective PBPs.
Background: Fluorescence polarisation rises when a labelled molecule tumbles more slowly, as on binding a larger partner.

The target of assay [2] is T2, PBP1a from Acinetobacter baumannii (ATCC 19606) (Acinetobacter baumannii, UniProt A0ABX6CK30).
T2 sequence (A0ABX6CK30 1-851): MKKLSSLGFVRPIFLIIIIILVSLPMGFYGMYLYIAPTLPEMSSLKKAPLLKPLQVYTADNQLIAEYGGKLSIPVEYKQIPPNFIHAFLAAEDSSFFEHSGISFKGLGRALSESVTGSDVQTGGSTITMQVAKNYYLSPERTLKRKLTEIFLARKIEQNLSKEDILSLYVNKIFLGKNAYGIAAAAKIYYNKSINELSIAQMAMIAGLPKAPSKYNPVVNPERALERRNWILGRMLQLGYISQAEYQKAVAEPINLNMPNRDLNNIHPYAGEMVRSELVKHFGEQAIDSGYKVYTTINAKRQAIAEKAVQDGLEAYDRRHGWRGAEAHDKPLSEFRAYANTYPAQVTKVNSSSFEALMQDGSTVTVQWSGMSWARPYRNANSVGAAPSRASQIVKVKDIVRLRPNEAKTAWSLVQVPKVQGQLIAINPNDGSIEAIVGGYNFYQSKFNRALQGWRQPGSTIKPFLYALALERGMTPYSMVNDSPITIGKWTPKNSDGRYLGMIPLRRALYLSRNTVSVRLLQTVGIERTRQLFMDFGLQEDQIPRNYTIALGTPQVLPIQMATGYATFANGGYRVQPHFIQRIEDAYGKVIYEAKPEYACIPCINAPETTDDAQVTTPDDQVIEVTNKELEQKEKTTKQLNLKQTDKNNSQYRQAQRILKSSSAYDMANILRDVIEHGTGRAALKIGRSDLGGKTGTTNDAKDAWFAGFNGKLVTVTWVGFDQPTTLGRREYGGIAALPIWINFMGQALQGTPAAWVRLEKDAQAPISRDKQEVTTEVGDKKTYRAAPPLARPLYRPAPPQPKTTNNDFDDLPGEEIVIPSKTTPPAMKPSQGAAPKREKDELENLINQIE
Put plainly: Bocillin-FL fluorescence polarization competition binding, A. baumannii PBP1a. To be noted: fluorescence polarization competition binding assay using Bocillin-FL; read-out: A. baumannii PBP1a Potency.
Excerpt: as §1

The subject of the next assay is P. aeruginosa CDC-0110. As to the kind of experiment: microbe, parasite or virus in culture. It counts as cell-based. Particulars: Pseudomonas aeruginosa, CDC0110, read-out: Minimum inhibitory concentration, P. aeruginosa CDC-0110.

With `CCN1CCN(C(=O)N[C@@H](C(=O)N[C@H]2Cc3ccc(F)c(C(=O)O)c3OB2O)c2ccc(P(=O)(O)O)cc2)C(=O)C1=O` (single isomer, unassigned) [Example 10], the IC50 in assay [1] is less than 10 µM.
Take `CS(=O)(=O)N1CCN(C(=O)N[C@@H](C(=O)N[C@H]2Cc3cccc(C(=O)O)c3OB2O)c2ccc(P(=O)(O)O)c(F)c2F)C1=O` (single isomer, unassigned) [Example 13]: the values for the IC50 in assay [1] and in assay [2] were less than 10 µM and greater than 250 µM, respectively.
`CS(=O)(=O)N1CCN(C(=O)N[C@@H](C(=O)N[C@H]2Cc3cccc(C(=O)O)c3OB2O)c2ccc(P(=O)(O)O)c(F)c2)C1=O` (single isomer, unassigned) [Example 15]: the IC50 in assay [1] was less than 10 µM.
Take `CS(=O)(=O)N1CCN(C(=O)N[C@@H](C(=O)N[C@H]2Cc3cccc(C(=O)O)c3OB2O)c2cc(F)c(P(=O)(O)O)c(F)c2)C1=O` (single isomer, unassigned) [Example 18]: the IC50 in assay [1] was less than 10 µM.
As to `CS(=O)(=O)N1CCN(C(=O)N[C@@H](C(=O)N[C@H]2Cc3ccc(F)c(C(=O)O)c3OB2O)c2ccc(P(=O)(O)O)c(F)c2)C1=O` (single isomer, unassigned) [Example 19], the MIC with P. aeruginosa CDC-0110 was greater than 128 µg/mL. In addition, the IC50 in assay [1] is less than 10 µM.
Turning to `N[C@@H](C(=O)N[C@H]1Cc2cccc(C(=O)O)c2OB1O)c1ccc(P(=O)(O)O)cc1` (single isomer, unassigned) [Example 171], in assay [1], the IC50 was in the range of 50 to 250 µM.
As for `O=C(O)c1c(F)ccc2c1OB(O)[C@@H](NC(=O)C(NC(=O)N1CCN(Cc3ccc(O)c(O)c3Cl)C(=O)C1=O)c1ccc(P(=O)(O)O)cc1)C2` (stereo partly drawn) [Example 8, (3R)-3-(2-(4-(2-chloro-3,4-dihydroxybenzyl)-2,3-dioxopiperazine-1-carboxamido)-2-(4-phosphonophenyl)acetamido)-7-fluoro-2-hydroxy-3,4-dihydro-2H-benzo[e][1,2]oxaborinine-8-carboxylic acid], the MIC with P. aeruginosa CDC-0110 was less than 1 µg/mL. In addition, the IC50 in assay [1] is less than 10 µM.
With `NC(C(=O)N[C@H]1Cc2ccc(F)c(C(=O)O)c2OB1O)c1ccc(P(=O)(O)O)cc1` (stereo partly drawn) [Example 14, (3R)-3-(2-amino-2-(4-phosphonophenyl)acetamido)-7-fluoro-2-hydroxy-3,4-dihydro-2H-benzo[e][1,2]oxaborinine-8-carboxylic acid], the IC50 in assay [1] was greater than 250 µM.
Still for that read-out and setting: as for `CS(=O)(=O)N1CCN(C(=O)NC(C(=O)N[C@H]2Cc3cccc(C(=O)O)c3OB2O)c2ccc(P(=O)(O)O)c(O)c2)C1=O` (stereo partly drawn) [Example 17, (3R)-2-hydroxy-3-(2-(3-hydroxy-4-phosphonophenyl)-2-(3-(methylsulfonyl)-2-oxoimidazolidine-1-carboxamido)acetamido)-3,4-dihydro-2H-benzo[e][1,2]oxaborinine-8-carboxylic acid], the figure is less than 10 µM; as for `CCN1CCN(C(=O)NC(C(=O)N[C@H]2Cc3cccc(C(=O)O)c3OB2O)c2ccc(P(=O)(O)O)c(O)c2)C(=O)C1=O` (stereo partly drawn) [Example 21, (3R)-3-(2-(4-ethyl-2,3-dioxopiperazine-1-carboxamido)-2-(3-hydroxy-4-phosphonophenyl)acetamido)-2-hydroxy-3,4-dihydro-2H-benzo[e][1,2]oxaborinine-8-carboxylic acid], less than 10 µM.
Regarding `CCN1CCN(C(=O)NC(C(=O)N[C@H]2Cc3cccc(C(=O)O)c3OB2O)c2cccc(CP(=O)(O)O)c2)C(=O)C1=O` (stereo partly drawn) [Example 22, (3R)-3-(2-(4-ethyl-2,3-dioxopiperazine-1-carboxamido)-2-(3-(phosphonomethyl)phenyl)acetamido)-2-hydroxy-3,4-dihydro-2H-benzo[e][1,2]oxaborinine-8-carboxylic acid], in assay [2], the IC50 is greater than 250 µM.
Turning to `CC(=O)NC(C(=O)N[C@H]1Cc2cccc(C(=O)O)c2OB1O)c1ccc(P(=O)(O)O)cc1` (stereo partly drawn) [Example 26, (3R)-3-(2-acetamido-2-(4-phosphonophenyl)acetamido)-2-hydroxy-3,4-dihydro-2H-benzo[e][1,2]oxaborinine-8-carboxylic acid], the IC50 in assay [1] is less than 10 µM.
Same read-out and setting: for `CS(=O)(=O)N1CCN(C(=O)NC(C(=O)N[C@H]2Cc3cccc(C(=O)O)c3OB2O)c2ccc(P(=O)(O)O)c(F)c2O)C1=O` (stereo partly drawn) [Example 48, (3R)-3-(2-(3-fluoro-2-hydroxy-4-phosphonophenyl)-2-(3-(methylsulfonyl)-2-oxoimidazolidine-1-carboxamido)acetamido)-2-hydroxy-3,4-dihydro-2H-benzo[e][1,2]oxaborinine-8-carboxylic acid] the value was 50 to 250 µM.
Regarding `O=C(N[C@@H](C(=O)N[C@H]1Cc2cccc(C(=O)O)c2OB1O)c1ccc(P(=O)(O)O)cc1)c1ccc(O)c(O)c1Cl` [Example 49, (R)-3-((R)-2-(2-chloro-3,4-dihydroxybenzamido)-2-(4-phosphonophenyl)acetamido)-2-hydroxy-3,4-dihydro-2H-benzo[e][1,2]oxaborinine-8-carboxylic acid], the MIC in the assay with P. aeruginosa CDC-0110 is less than 1 µg/mL. Further, the IC50 in assay [1] is less than 10 µM.
In the case of `O=C(NCCN1CCN(C(=O)NC(C(=O)N[C@H]2Cc3ccc(F)c(C(=O)O)c3OB2O)c2ccc(P(=O)(O)O)cc2)C(=O)C1=O)c1ccc(O)c(O)c1Cl` (stereo partly drawn) [Example 120, (3R)-3-(2-(4-(2-(2-chloro-3,4-dihydroxybenzamido)ethyl)-2,3-dioxopiperazine-1-carboxamido)-2-(4-phosphonophenyl)acetamido)-7-fluoro-2-hydroxy-3,4-dihydro-2H-benzo[e][1,2]oxaborinine-8-carboxylic acid], the MIC in the assay with P. aeruginosa CDC-0110 was less than 1 µg/mL. Moreover, in assay [1], the IC50 is less than 10 µM.
